Results: US20110070270A1, “IMMUNOSTIMULATING AGENT” (priority 2008, published 2011)

Assays:
mouse spleen cells [1] = assay: IgA production upon LPS stimulation of mouse spleen cells (ELISA of culture supernatant); type: cell-based; settings: for IgA concentration (amount of IgA production), mean: BALB/c mouse spleen cells, 5 days culture, supernatant; for Ability to promote IgA production upon LPS stimulation: mouse spleen cells, Student's t test, significance level 5%
Excerpt: (§1) BALB mice (female) of 6 to 8 weeks old were purchased and fed for 1 week for habituation. A commercially available solid feed was used as a feed and tap water was used as water. In order to evaluate influences of cinacalcet and γ-glutamylvaline on antibody producing activity, a culture system using mouse spleen cells was employed. The spleen was collected from BALB-c mice (n=3). The collected spleen cells were washed and thereafter suspended in an RPMI1640 medium (10% FCS, 50 U/ml penicillin, and 50 μg/ml streptomycin). To cells adjusted to 1×10^6 per a 48 well culture plate, cinacalcet or γ-glutamylvaline (dissolved in a sterilized phosphate buffer), or a phosphate buffer as a control was added. And the cells were then stimulated with 5 μg of LPS (lipopolysaccharide, obtained from Sigma). Thereafter, the cells were cultured in a CO2 incubator at 37° C. for 5 days and the amount of IgA antibody in the supernatant was analyzed.
(§2) The amounts of IgA and IgG were measured by the ELISA method. The method for measuring IgG is shown below. 100 μl of rat anti-mouse IgG antibody (Calbiochem, 1 μg/ml in 50 mM sodium carbonate buffer, pH 8.5) solution was added to a 96 well ELISA plate and the plate was incubated at 4° C. overnight to coat each well with the anti-mouse IgG antibody. The plate was washed three times with PBST (phosphate buffered saline, 0.05% Tween 20) and subjected to a blocking treatment with 200 μl of PBS solution containing 2% BSA at 37° C. for 1 hr.
(§3) The plate was washed three times with PBST. Thereafter, 100 μl of the culture supernatant (9 fold diluted with PBST containing 1% BSA) was added and allowed to react at 37° C. for 2 hr. The plate was again washed four times with PBST. 100 μl of an alkaline phosphatase-conjugated anti-mouse IgG (rabbit) (BD Biosciences) solution diluted 2000 fold with PBST containing 1% BSA was added and allowed to react at 37° C. for 1 hour. The plate was washed six times and then colored with p-nitrophenyl phosphate. The reaction was terminated with 100 μl/well of 3 M NaOH and the absorbance at 405 nm was measured.
The measurement of IgA was carried out in accordance with the method for IgG except that a rat anti-mouse IgA antibody (BD Biosciences) was used as the immobilized antibody, a biotinylated anti-mouse IgA antibody (rat) (BD Biosciences) was used as the labeled antibody, 3,3′,5,5′-tetramethylbenzidine solution (TMB substrate-developing solution, Sigma) was used as the chromogenic substrate, termination of the coloring was carried out using 1 M sulfuric acid, and the absorbance at 450 nm was measured.
(§4) A statistical analysis was carried out by Student's t test and a significance level of 5% or less was considered as significant difference.

mouse spleen cells [2] = assay: IgG production upon ConA stimulation of mouse spleen cells (ELISA of culture supernatant); type: cell-based; settings: for IgG concentration (amount of IgG production), mean: BALB/c mouse spleen cells, 5 days culture, supernatant; for Ability to promote IgG production upon ConA stimulation: mouse spleen cells, Student's t test, significance level 5%
Excerpt: as §1
In the same manner, the cells adjusted to 1×10^6 per a 48 well culture plate were, in the presence or absence of cinacalcet or γ-glutamylvaline, stimulated with 0.5 μg of ConA (concanavalin A). Thereafter, the cells were cultured in a CO2 incubator at 37° C. for 5 days and the amount of IgG antibody in the supernatant was analyzed.
as §2, §3, §4

## CC(C)[C@H](NC(=O)CC[C@H](N)C(=O)O)C(=O)O [γ-GluVal, γ-glutamylvaline]
Mouse spleen cells [1]; LPS stimulation + test substance 0.1 mM
  IgA concentration (amount of IgA production), mean: 25.28 ng/mL
Mouse spleen cells [1]
  Ability to promote IgA production upon LPS stimulation: significantly confirmed
Mouse spleen cells [2]; ConA stimulation + test substance 0.1 mM
  IgG concentration (amount of IgG production), mean: 62.78 ng/mL
Mouse spleen cells [2]
  Ability to promote IgG production upon ConA stimulation: significantly confirmed

## C[C@@H](NCCCc1cccc(C(F)(F)F)c1)c1cccc2ccccc12 [Cinacalcet, (R)—N-(3-(3-(trifluoromethyl)phenyl)propyl)-1-(1-naphthyl)ethylamine]
Mouse spleen cells [1]; LPS stimulation + test substance 0.1 μM
  IgA concentration (amount of IgA production), mean: 26.09 ng/mL
Mouse spleen cells [1]
  Ability to promote IgA production upon LPS stimulation: significantly confirmed
Mouse spleen cells [2]; ConA stimulation + test substance 0.1 μM
  IgG concentration (amount of IgG production), mean: 55.24 ng/mL
Mouse spleen cells [2]
  Ability to promote IgG production upon ConA stimulation: significantly confirmed
